Each structure is given as a SMILES string.

Test [1] deals with human brain micro-vascular endothelial cells. As to the kind of experiment: In vitro stroke model: endothelial cells subjected to hypoxia and glucose deprivation. The format is cell-based. The conditions noted are these: hypoxia and glucose deprivation 5 h (Example 44: 6 h), viability after 24 hours of culture. As to the method:
FIG. 1 is a bar chart showing cell viability as a ratio of basal cell viability of human brain microvascular endothelial cells subjected to hypoxia and starvation (OGD: oxygen and glucose deprivation) for 5 h and then cultured for 24 h in the absence or presence of Example 11 at a concentration of 2, 10 or 20 μM. Basal=no hypoxia or starvation, cells cultured in the presence of culture medium only. OGD=5 h of hypoxia or starvation, cells cultured in the presence of culture medium only.
FIG. 2 is a bar chart showing cell viability as a ratio of basal cell viability of human brain microvascular endothelial cells subjected to hypoxia and starvation (OGD) for 5 h and then cultured for 24 h in the absence or presence of Example 17 at a concentration of 0.3, 3 or 10 μM. Basal=no hypoxia or starvation, cells cultured in the presence of culture medium only. OGD=5 h of hypoxia or starvation, cells cultured in the presence of culture medium only.
FIG. 3 is a bar chart showing cell viability as a ratio of basal cell viability of human brain microvascular endothelial cells subjected to hypoxia and starvation (OGD: oxygen and glucose deprivation) for 6 h and then cultured for 24 h in the absence or presence of Example 44 at a concentration of from 0.6 to 9.6 μM. Basal=no hypoxia or starvation, cells cultured in the presence of culture medium only. OGD=6 h of hypoxia or starvation, cells cultured in the presence of culture medium only (*p<0.05, ***p<0.001).
Hippocampal brain slices and human brain micro-vascular endothelial cells were subjected to hypoxia and glucose deprivation (starvation) for 5 hours and were tested for viability after 24 hours of culture in the presence of Example 11 or Example 17 at different concentrations. Additionally, human brain micro-vascular endothelial cells were subjected to hypoxia and glucose deprivation (starvation) for 6 hours and were tested for viability after 24 hours of culture in the presence of Example 44 at various concentrations.

The target in test [2] is hNox4 (Homo sapiens (Human), UniProt Q9NPH5). As to the kind of experiment: hNox4 membrane assay (Amplex Red, cell-free). The format is biochemical. On the procedure: (§1) Reactive oxygen produced in whole cells or in membrane preparation of Nox1, Nox3, Nox4, Nox5 and xanthine oxidase and glucose oxidase were determined using Amplex Red as detection probe of formed H2O2. Amplex Red (10-acetyl-3,7-dihydroxyphenoxazine) in combination with HRP and co-factors reacts with H2O2 in a 1:1 stoichiometry to form a highly fluorescent resorufin excitated at 544 nm producing emission at 590 nm.
Chain of hNox4 (Q9NPH5 whole entry): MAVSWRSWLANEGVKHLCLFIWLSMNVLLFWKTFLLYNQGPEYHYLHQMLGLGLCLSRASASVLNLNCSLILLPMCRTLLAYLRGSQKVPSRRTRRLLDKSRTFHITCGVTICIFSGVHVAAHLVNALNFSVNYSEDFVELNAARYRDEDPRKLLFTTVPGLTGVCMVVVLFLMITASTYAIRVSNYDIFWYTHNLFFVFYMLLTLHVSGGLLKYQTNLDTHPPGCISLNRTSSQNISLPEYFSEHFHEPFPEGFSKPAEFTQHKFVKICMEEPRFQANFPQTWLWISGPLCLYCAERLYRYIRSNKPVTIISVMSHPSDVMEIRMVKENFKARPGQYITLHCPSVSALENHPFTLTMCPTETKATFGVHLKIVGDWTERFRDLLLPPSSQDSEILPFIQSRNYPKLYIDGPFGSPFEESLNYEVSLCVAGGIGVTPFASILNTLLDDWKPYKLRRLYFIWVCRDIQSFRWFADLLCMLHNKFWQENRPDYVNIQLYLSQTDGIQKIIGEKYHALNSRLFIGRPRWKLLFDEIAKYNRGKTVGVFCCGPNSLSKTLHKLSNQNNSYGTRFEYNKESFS
Chain of hNox4 (P13498 2-195 partner): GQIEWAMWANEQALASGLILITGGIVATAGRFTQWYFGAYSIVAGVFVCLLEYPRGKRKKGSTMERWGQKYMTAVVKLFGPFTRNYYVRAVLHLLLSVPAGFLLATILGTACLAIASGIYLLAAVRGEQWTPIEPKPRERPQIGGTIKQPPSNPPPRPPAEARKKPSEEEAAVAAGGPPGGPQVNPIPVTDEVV
Membranes from transfected cells overexpressing Nox1 (CHO), Nox2 (PLB), Nox3 (HEK), Nox4 (HEK) or Nox5 (HEK) were prepared as described in Pailcz et al., 2001, J. Biol. Chem, 76, 3090-3097. Cells were suspended and homogenized in sonication buffer containing PBS, sucrose (11%), NaCl (120 mM) and EGTA (1 mM) supplemented with protease inhibitors and further processed and then broken by sonication cooled with an ice bath. Then the sample was centrifuged at 200×g for 10 min. Supernatant was carefully added on top of a 17/40% discontinuous sucrose gradient and centrifuged at 150 000×g for 60 min. Membranes containing Nox isoforms were collected at the 17/40% sucrose interface as described by Jaquet V, et al., Br J Pharmacol 2011; 164:507-520. For the Nox isoforms Nox1, Nox2, Nox3 a subunit-specific cell-free, membrane-based system has been developed and recombinant proteins of the subunits were added to receive activation of the Nox-iso forms in the cell-free assay. The Amplex Red assay was performed in black 96-well flat bottom plates. Assay reagents including HRP ([…]), FAD (6 μM), phosphatidic acid (15 μM) and Amplex Red (50 μM) were added followed by NADPH (30 μM) to initiate production of hydrogen peroxide. The production of hydrogen peroxide was followed by use of a fluorescence plate reader, read at 37° C. every minute between 30-60 minutes.

Test [3] deals with Nox3 (Homo sapiens (Human), UniProt Q9HBY0). As to the kind of experiment: Amplex Red assay of Nox3 expressing HEK cells. The format is cell-based. Also on record: key: The sign “—” stands for “inactive”.
Chain of Nox3 (Q9HBY0 whole entry): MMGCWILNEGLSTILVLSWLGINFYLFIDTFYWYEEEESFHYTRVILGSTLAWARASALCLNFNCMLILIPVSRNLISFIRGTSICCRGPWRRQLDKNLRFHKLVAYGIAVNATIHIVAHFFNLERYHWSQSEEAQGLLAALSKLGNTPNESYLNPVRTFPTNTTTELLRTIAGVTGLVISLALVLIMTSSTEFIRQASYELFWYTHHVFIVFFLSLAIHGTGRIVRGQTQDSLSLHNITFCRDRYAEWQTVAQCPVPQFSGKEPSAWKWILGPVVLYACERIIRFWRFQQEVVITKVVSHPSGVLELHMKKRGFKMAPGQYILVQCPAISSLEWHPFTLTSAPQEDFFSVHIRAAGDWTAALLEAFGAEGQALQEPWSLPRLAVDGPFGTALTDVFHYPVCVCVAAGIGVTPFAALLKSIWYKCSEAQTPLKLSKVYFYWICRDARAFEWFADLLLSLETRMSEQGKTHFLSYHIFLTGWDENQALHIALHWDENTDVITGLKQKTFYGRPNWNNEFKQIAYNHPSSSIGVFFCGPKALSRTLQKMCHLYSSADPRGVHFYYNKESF
Chain of Nox3 (P13498 2-195 partner): as the sequence (P13498 2-195 partner) above
Source text: HEK293 overexpressing Nox4 (CJ Nox4) cells were purchased from Redoxis, Lund, Sweden. HEK 293 cells expressing Nox5, Nox3 (HEK TRex) and CHO cells expressing Nox1, were a kind gift from Vincent Jaque Center Medical Universitaire, Geneva, Switzerland. Nox2 expressed in isolated neutrophils were isolated from whole blood (human), as previously described (Anvari E, et al., Free Radic Res 2015; 49:1308-1318).
HEK293T cells expressing tetracycline-inducible human (Nox3 or Nox4) and HEK293 cells stably expressing human Nox5 were generated as described previously (Serrander et al., 2007a,b). HEK cells were cultured in Dulbecco's modified Eagle medium (DMEM) with 4.5 g/l glucose, supplemented with FBS (10%), penicillin (100 U/ml) and streptomycin […] at 37° C. in air with 5% CO2.
as §1
Adherent cells (CHO, HEK) were collected by trypsinization, centrifuged, washed with HBSS, counted, and resuspended in HBSS. Cells were seeded in 96-well black flat bottom plates at a density of 50,000-100,000 cells/well. All compounds were dissolved in DMSO and concentrations ranging from 0.003 to 200 μM were tested in Nox cellular assays with a final concentration of DMSO of 1%. Cells were incubated at 37° C. with the compounds for 30 minutes before measurement. Cells expressing Nox1 and Nox2 were activated with the PKC activator PMA (0.1 μM). […] Production of hydrogen peroxide by Nox in intact cells was measured using Amplex Red fluorescence as described by Jaquet V, et al., Br J Pharmacol 2011; 164:507-520. […] Fluorescence was read in a fluorescence plate reader at 37° C. every minute between 30-60 minutes.

Test [4] addresses glucose oxidase (Aspergillus niger, UniProt P13006). As to the kind of experiment: Amplex Red and glucose oxidase (GO) assay. Also on record: key: The sign “—” stands for “inactive”. The format is biochemical. As to the method: as §1
The assay was performed using a modified form of Invitrogen Amplex™ Red Glucose/Glucose Oxidase Assay Kit Cat no: A22189. Test compounds were incubated with 5 mU/ml glucose oxidase for 30 min at room temperature, followed by the addition of substrate and detection mix (final concentrations of 0.1 U/ml HRP, 10 mM glucose, 50 μM Amplex Red in phosphate buffer pH 7.4) and then fluorescence detection of hydrogen peroxide production was performed during 30 min at 37° C. in a plate reader that use excitation at 544 nm producing emission at 590 nm.

Chain of glucose oxidase (P13006 17-605): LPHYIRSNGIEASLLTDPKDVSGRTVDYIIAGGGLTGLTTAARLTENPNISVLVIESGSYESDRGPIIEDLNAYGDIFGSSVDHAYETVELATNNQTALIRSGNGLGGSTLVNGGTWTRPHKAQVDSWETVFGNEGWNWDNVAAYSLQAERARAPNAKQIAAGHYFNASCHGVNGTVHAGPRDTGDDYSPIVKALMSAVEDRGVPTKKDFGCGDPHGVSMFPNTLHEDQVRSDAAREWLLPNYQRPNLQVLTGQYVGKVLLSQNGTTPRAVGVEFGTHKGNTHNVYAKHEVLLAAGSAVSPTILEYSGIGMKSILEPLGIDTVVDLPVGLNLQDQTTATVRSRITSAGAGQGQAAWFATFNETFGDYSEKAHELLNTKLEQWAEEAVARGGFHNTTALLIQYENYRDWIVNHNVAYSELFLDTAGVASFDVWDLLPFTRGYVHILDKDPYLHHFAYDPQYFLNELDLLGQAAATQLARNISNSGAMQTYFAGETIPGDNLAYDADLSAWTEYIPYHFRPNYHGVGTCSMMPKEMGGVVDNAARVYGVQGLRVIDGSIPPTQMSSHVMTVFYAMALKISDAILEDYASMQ

As to `Cc1ccccc1CCNS(=O)(=O)c1c(C)cccc1Cl` [Example 11, 2-chloro-6-methyl-N-[2-(2-methylphenyl)ethyl]benzene-1-sulfonamide], the “neuroprotective effect (cell viability)” value in test [1] was “neuroprotective effect”. The inhibition constant (Ki) in test [2] stood at 4400 nM. Also, in test [3], the “IC50 Nox3” value is “—”. Besides, in test [4], the “IC50 GO” value is reported as “—”.

For the molecule `Cc1cc(Cl)c(S(=O)(=O)NCCc2ccccc2O)c(C)c1O` [Example 44, 6-chloro-3-hydroxy-N-[2-(2-hydroxyphenyl)ethyl]-2,4-dimethyl-benzenesulfonamide], in test [1], the “neuroprotective effect (cell viability)” value is “neuroprotective effect”.

Take `Cc1ccccc1CCNS(=O)(=O)c1c(Cl)cc(Br)cc1Cl` [Example 17, 4-bromo-2,6-dichloro-N-[2-(2-methylphenyl)ethyl]benzene-1-sulfonamide]: the “neuroprotective effect (cell viability)” value in test [1] is listed as “neuroprotective effect”. Also, the Ki in test [2] turned out to be 560 nM. The “IC50 Nox3” value in test [3] is reported as “—”. Also, in test [4], the “IC50 GO” value is on record as “—”.

For the molecule `O=S(=O)(NCCc1ccccc1Cl)c1c(Cl)cc(C2CC2)cc1Cl` [Example 26, 2,6-dichloro-N-[2-(2-chlorophenyl)ethyl]-4-cyclopropylbenzene-1-sulfonamide], the inhibition constant (Ki) in test [2] came to 2200 nM. Further, the “IC50 Nox3” value in test [3] is recorded as “—”. Further, the “IC50 GO” value in test [4] was “—”.

In general, Ki refers to a measure of affinity in units of concentration, obtained from inhibition or displacement.

Values taken from patent US12202790B2, “Sulfonamide derivatives having selective Nox inhibiting activity” (GLUCOX BIOTECH AB, priority 2018, dated 2025).
